{"source": "patent US20090060851A1", "about": "“USE OF IDEBENONE FOR THE PREPARATION OF A TOPICALLY-APPLIED DEPIGMENTATION COMPOSITION AND CORRESPONDING COMPOSITION” (priority 2005, published 2009)", "key": {"[1]": {"tested_on": "skin of nude adult mice", "assay": "Epidermal and dermal morphometry, mouse skin", "assay_type": "in vivo", "procedure": "(§1) Creams containing 5% and 2.5% w/w idebenone (IDB) in a neutral phase were prepared. Said creams and a cream having an identical formulation but without idebenone were applied on nude adult mice with 3 months of age. The cream with idebenone was applied on the right half of the body of the animals and the control cream on the left half according to the scheme detailed below. The animals were sacrificed 1, 2, 3 or 4 hours after applying the cream (p.a.). • Batch A: animal treated with 5% IDB (1 hour p.a.) • Batch B: animal treated with 2.5% IDB (1 hour p.a.) • Batch C: animal treated with 5% IDB (2 hours p.a.) • Batch D: animal treated with 2.5% IDB (2 hours p.a.) • Batch E: animal treated with 5% IDB (3 hours p.a.) • Batch F: animal treated with 2.5% IDB (3 hours p.a.) • Batch G: animal treated with 5% IDB (4 hours p.a.) • Batch H: animal treated with 2.5% IDB (4 hours p.a.)\n(§2) Morphological and morphometric studies: Thickness of the epidermis, the horny layer, the papillary dermis and reticular dermis was measured in at least 10 different points, the result being expressed as the average of the 10 measurements. Capillary vessel diameter was also measured in at least 10 points, expressing them by means of their average. The measurements were carried out using a Quantimet 500+ (Leica) image processing equipment. […]"}, "[2]": {"tested_on": "skin of nude adult mice", "assay": "Dermal capillary vessel diameters, mouse skin", "assay_type": "in vivo", "conditions": "topically applied", "procedure": "as §1, §2"}, "[3]": {"tested_on": "SK-MEL-28", "assay": "Melanin content determination (OD400) in SK-MEL cells", "assay_type": "cell-based, human", "procedure": "In vitro determinations were performed following the method devised by Dooley et al. (Skin Pharmacol. 1994; 7:188-200) in order to evaluate the capacity of idebenone to inhibit melanogenesis, according to the process described below:\nCells: The study was carried out using a cell line derived from human melanoma, provided by ABAC (Asociación Banco Argentino de Células—Cell Bank of Argentina), with melanin synthesis capability (SK-MEL-28, ATCC origin). The cells were grown in plastic culture bottles or in 24-well plastic dishes in a modified Eagle medium (DMEM) supplemented with 10% fetal bovine serum (FBS) and were maintained at 37° C. in a 5% CO2 atmosphere.\nStudy of in vitro compounds: SK-MEL cells detached with trypsin were seeded on plastic 24-well dishes (density of 1×10^5 cells per well) and incubated for 24 hours in modified Eagle medium (DMEM) supplemented with 10% fetal bovine serum (FBS) prior to treating with the compound to be evaluated. After 24 hours have lapsed, the medium was replaced with 990 μl of fresh medium. 10 μl of sterile vehicle (50% propylene glycol, 30% ethanol and 20% distilled water) containing different concentrations of the compounds to be evaluated were added to this fresh medium.\nDecimal dilutions of each compound in the sterile vehicle were prepared in order to obtain final concentrations of the compound to be studied ranging between 1.000 and 0.01 μg/ml. […]\n[…] The cells were thus continuously exposed to the compounds under study for the 5 days the culture lasted. All the concentrations of the compounds were studied in triplicate, comparing the mean of the 3 wells treated with the compounds with those treated with the vehicle alone.\nMelanin content determination: The SK-MEL cell melanin content was determined after stirring the culture medium and washing the cells with PBS. The cells were then lysated by means of adding 1 ml of 1N NaOH to each well and repeated manual pipetting. The raw cell extract was analyzed using a spectrophotometer at 400 and 475 nm to determine the melanin and dopaquinone content, respectively. The results were expressed as a percentage of the cell cultures treated with the vehicle."}, "[4]": {"assay": "Idebenone dosing in skin cuts by gas chromatography (penetration)", "assay_type": "in vivo, mice", "conditions": "mouse skin, topical cream", "procedure": "Creams containing 5% and 2.5% w/w idebenone (IDB) in a neutral phase were prepared. Said creams and a cream having an identical formulation but without idebenone were applied on nude adult mice with 3 months of age. The cream with idebenone was applied on the right half of the body of the animals and the control cream on the left half according to the scheme detailed below. The animals were sacrificed 1, 2, 3 or 4 hours after applying the cream (p.a.). • Batch A: animal treated with 5% IDB (1 hour p.a.) • Batch B: animal treated with 2.5% IDB (1 hour p.a.) • Batch C: animal treated with 5% IDB (2 hours p.a.) • Batch D: animal treated with 2.5% IDB (2 hours p.a.) • Batch E: animal treated with 5% IDB (3 hours p.a.) • Batch F: animal treated with 2.5% IDB (3 hours p.a.) • Batch G: animal treated with 5% IDB (4 hours p.a.) • Batch H: animal treated with 2.5% IDB (4 hours p.a.) […]\nIdebenone dosing by gas chromatography: The treated and control skin sections were placed epidermis side down on a cryostat stage and 300 micron thick sections parallel to the surface were obtained in such a manner so as to obtain a deep cut, a surface cut and a medium cut. […] Each extract was analyzed by gas chromatography using a Hewlett Packard 5890 gas chromatograph, using a capillary column with methyl silicone as stationary phase (HP-IMS, 25 m×0.2 mm, 0.33μ thick film). […]"}, "[5]": {"conditions": "Example 9 (similar to Example 6), dilution −2"}, "[6]": {"conditions": "Example 9 (similar to Example 6), dilution −3"}, "[7]": {"conditions": "Example 9 (similar to Example 6), dilution −4"}, "[8]": {"conditions": "Example 9 (similar to Example 6), dilution −5"}, "[9]": {"conditions": "Example 9 (similar to Example 6), dilution −6"}, "[10]": {"conditions": "Example 9 (similar to Example 6), dilution −7"}, "[11]": {"conditions": "Example 9 (similar to Example 6), dilution −8"}, "[12]": {"conditions": "dilution −1, treated daily 3 days, assayed day 5"}, "[13]": {"conditions": "dilution −2, treated 1 day, evaluated third day"}, "[14]": {"conditions": "dilution −2, treated daily 3 days, assayed day 5"}, "[15]": {"conditions": "dilution −3, treated 1 day, evaluated third day"}, "[16]": {"conditions": "dilution −3, treated daily 3 days, assayed day 5"}, "[17]": {"conditions": "dilution −4, treated 1 day, evaluated third day"}, "[18]": {"conditions": "dilution −4, treated 2 days, evaluated fourth day"}, "[19]": {"conditions": "dilution −4, treated daily 3 days, assayed day 5"}, "[20]": {"conditions": "dilution −5, treated 1 day, evaluated third day"}, "[21]": {"conditions": "dilution −5, treated 2 days, evaluated fourth day"}, "[22]": {"conditions": "dilution −5, treated daily 3 days, assayed day 5"}, "[23]": {"conditions": "dilution −6, treated 1 day, evaluated third day"}, "[24]": {"conditions": "dilution −6, treated 2 days, evaluated fourth day"}}}
{"smiles": "COC1=C(OC)C(=O)C(CCCCCCCCCCO)=C(C)C1=O", "note": "[idebenone, 6-(10-hydroxydecyl)-2,3-dimethoxy-5-methyl-1,4-benzoquinone]", "values": [{"measurement": "Thicknesses of the papillary dermis and the reticular dermis", "setting": "[1]; nude mice skin, 5% and 2.5% IDB creams versus control", "value": "did not significantly vary"}, {"measurement": "Effect on epidermal thickness", "setting": "[1]; nude mice, topically applied", "value": "does not substantially modify epidermal thickness"}, {"measurement": "Effect on microcirculation vascular diameters", "setting": "[2]", "value": "does not substantially modify microcirculation vascular diameters"}, {"measurement": "OD400 (melanin)", "setting": "[3]; [5]", "value": 0.01166}, {"measurement": "OD400 Percentage (melanin)", "setting": "[3]; [5]", "value": 71.40, "unit": "%"}, {"measurement": "OD400 (melanin)", "setting": "[3]; [6]", "value": 0.01566}, {"measurement": "OD400 Percentage (melanin)", "setting": "[3]; [6]", "value": 95.89, "unit": "%"}, {"measurement": "OD400 (melanin)", "setting": "[3]; [7]", "value": 0.01533}, {"measurement": "OD400 Percentage (melanin)", "setting": "[3]; [7]", "value": 93.87, "unit": "%"}, {"measurement": "OD400 (melanin)", "setting": "[3]; [8]", "value": 0.01466}, {"measurement": "OD400 Percentage (melanin)", "setting": "[3]; [8]", "value": 89.77, "unit": "%"}, {"measurement": "OD400 (melanin)", "setting": "[3]; [9]", "value": 0.009}, {"measurement": "OD400 Percentage (melanin)", "setting": "[3]; [9]", "value": 55.11, "unit": "%"}, {"measurement": "OD400 (melanin)", "setting": "[3]; [10]", "value": 0.01166}, {"measurement": "OD400 Percentage (melanin)", "setting": "[3]; [10]", "value": 71.40, "unit": "%"}, {"measurement": "OD400 (melanin)", "setting": "[3]; [11]", "value": 0.01166}, {"measurement": "OD400 Percentage (melanin)", "setting": "[3]; [11]", "value": 71.40, "unit": "%"}, {"measurement": "Melanin synthesis inhibition", "setting": "[3]; SK-MEL-28, Example 5", "value": "inhibits melanin synthesis in a dose-dependent manner"}, {"measurement": "OD400 (melanin)", "setting": "[3]; [12]", "value": 0.0156}, {"measurement": "OD400 expressed as percentage of control (melanin)", "setting": "[3]; [12]", "value": 28, "unit": "%"}, {"measurement": "OD400 (melanin)", "setting": "[3]; [13]", "value": 0.0040}, {"measurement": "OD400 Percentage (melanin)", "setting": "[3]; [13]", "value": 14.65, "unit": "%"}, {"measurement": "OD400 (melanin)", "setting": "[3]; [14]", "value": 0.0140}, {"measurement": "OD400 expressed as percentage of control (melanin)", "setting": "[3]; [14]", "value": 40, "unit": "%"}, {"measurement": "OD400 (melanin)", "setting": "[3]; [15]", "value": 0.0133}, {"measurement": "OD400 Percentage (melanin)", "setting": "[3]; [15]", "value": 48.72, "unit": "%"}, {"measurement": "OD400 (melanin)", "setting": "[3]; [16]", "value": 0.0123}, {"measurement": "OD400 expressed as percentage of control (melanin)", "setting": "[3]; [16]", "value": 52, "unit": "%"}, {"measurement": "OD400 (melanin)", "setting": "[3]; [17]", "value": 0.0243}, {"measurement": "OD400 Percentage (melanin)", "setting": "[3]; [17]", "value": 89.01, "unit": "%"}, {"measurement": "OD400 (melanin)", "setting": "[3]; [18]", "value": 0.0613}, {"measurement": "OD400 Percentage (melanin)", "setting": "[3]; [18]", "value": 112.89, "unit": "%"}, {"measurement": "OD400 (melanin)", "setting": "[3]; [19]", "value": 0.0096}, {"measurement": "OD400 expressed as percentage of control (melanin)", "setting": "[3]; [19]", "value": 59, "unit": "%"}, {"measurement": "OD400 (melanin)", "setting": "[3]; dilution −4, treated for 3 days, evaluated fifth day", "value": 0.0686}, {"measurement": "OD400 Percentage (melanin)", "setting": "[3]; dilution −4, treated for 5 days (heading: 3 days), evaluated fifth day", "value": 77.69, "unit": "%"}, {"measurement": "OD400 (melanin)", "setting": "[3]; [20]", "value": 0.0343}, {"measurement": "OD400 Percentage (melanin)", "setting": "[3]; [20]", "value": 125.64, "unit": "%"}, {"measurement": "OD400 (melanin)", "setting": "[3]; [21]", "value": 0.0626}, {"measurement": "OD400 Percentage (melanin)", "setting": "[3]; [21]", "value": 115.28, "unit": "%"}, {"measurement": "OD400 (melanin)", "setting": "[3]; [22]", "value": 0.0066}, {"measurement": "OD400 expressed as percentage of control (melanin)", "setting": "[3]; [22]", "value": 66, "unit": "%"}, {"measurement": "OD400 (melanin)", "setting": "[3]; dilution −5, treated for 3 days, evaluated fifth day", "value": 0.0742}, {"measurement": "OD400 Percentage (melanin)", "setting": "[3]; dilution −5, treated for 5 days (heading: 3 days), evaluated fifth day", "value": 84.03, "unit": "%"}, {"measurement": "OD400 (melanin)", "setting": "[3]; [23]", "value": 0.0313}, {"measurement": "OD400 Percentage (melanin)", "setting": "[3]; [23]", "value": 114.65, "unit": "%"}, {"measurement": "OD400 (melanin)", "setting": "[3]; [24]", "value": 0.0396}, {"measurement": "OD400 Percentage (melanin)", "setting": "[3]; [24]", "value": 72.92, "unit": "%"}, {"measurement": "OD400 (melanin)", "setting": "[3]; dilution −6, treated for 3 days, evaluated fifth day", "value": 0.0801}, {"measurement": "OD400 Percentage (melanin)", "setting": "[3]; dilution −6, treated for 5 days (heading: 3 days), evaluated fifth day", "value": 90.71, "unit": "%"}, {"measurement": "Melanogenesis inhibition at high dilutions", "setting": "[3]; −2 to −8 dilutions", "value": "preserves its ability to inhibit melanogenesis"}, {"measurement": "Penetration of IDB in the skin", "setting": "[4]", "value": "penetrates the skin and is retained up to two hours after its application in the most superficial sections"}]}
